Patent publication US7355042B2, “Treatment of CNS disorders using CNS target modulators” (Hypnion, Inc., priority 2001, dated 2008)
Structures can show the parent of a compound that is named as a salt. Marks after values point to notes of the source that are not given here.

How the values were obtained:
[1] = test system: M3 receptor from guinea pig ileum membranes; conditions: read-out: Ki of reference compounds, M3 binding assay; cited from earlier work
[2] = target: T1, human recombinant M1 muscarinic receptor expressed in CHO cells (Homo sapiens, UniProt P11229); conditions: read-out: Ki of reference compounds, M1 binding assay; cited from earlier work
T1 construct: expressed in transfected cells; host or cells: CHO cells
T1 sequence (P11229 1-460): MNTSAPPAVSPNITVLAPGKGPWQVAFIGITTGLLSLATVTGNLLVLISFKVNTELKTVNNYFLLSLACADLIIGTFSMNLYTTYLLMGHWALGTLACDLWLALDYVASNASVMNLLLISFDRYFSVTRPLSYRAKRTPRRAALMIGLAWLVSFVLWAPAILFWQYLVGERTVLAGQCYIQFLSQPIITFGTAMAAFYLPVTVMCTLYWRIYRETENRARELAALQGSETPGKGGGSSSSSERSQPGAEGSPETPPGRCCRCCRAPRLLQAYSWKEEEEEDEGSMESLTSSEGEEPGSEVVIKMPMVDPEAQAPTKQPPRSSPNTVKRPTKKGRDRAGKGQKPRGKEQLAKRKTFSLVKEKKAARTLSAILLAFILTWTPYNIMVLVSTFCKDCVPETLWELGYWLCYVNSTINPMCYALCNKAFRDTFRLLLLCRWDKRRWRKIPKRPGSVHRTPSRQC

[3] = target: T2, M2 receptor from rat cardiac membranes (Rattus norvegicus, UniProt P10980); conditions: read-out: Ki of reference compounds, M2 binding assay; cited from earlier work
T2 construct: the M2 receptor was from rat cardiac membranes; from tissue; host or cells: rat cardiac membranes
T2 sequence (P10980 1-466): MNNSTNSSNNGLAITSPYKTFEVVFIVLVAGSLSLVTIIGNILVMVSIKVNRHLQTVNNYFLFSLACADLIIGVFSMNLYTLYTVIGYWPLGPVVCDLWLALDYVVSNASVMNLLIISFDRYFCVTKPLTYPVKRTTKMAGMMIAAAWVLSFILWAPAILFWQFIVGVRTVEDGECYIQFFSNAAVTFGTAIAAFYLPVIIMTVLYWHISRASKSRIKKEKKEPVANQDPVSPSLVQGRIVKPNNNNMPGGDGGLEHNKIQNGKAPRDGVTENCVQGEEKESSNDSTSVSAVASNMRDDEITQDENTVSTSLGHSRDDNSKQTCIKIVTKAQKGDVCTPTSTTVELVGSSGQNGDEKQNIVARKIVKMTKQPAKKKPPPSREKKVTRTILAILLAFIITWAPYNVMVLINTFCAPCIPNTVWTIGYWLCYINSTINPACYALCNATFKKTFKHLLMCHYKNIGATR

[4] = target: Norepinephrine Transporter (Homo sapiens, UniProt P23975); experiment: Receptor selectivity binding comparison: Norepinephrine Transporter; conditions: 1.0E−6
Chain of Norepinephrine Transporter (P23975 whole entry, species assumed): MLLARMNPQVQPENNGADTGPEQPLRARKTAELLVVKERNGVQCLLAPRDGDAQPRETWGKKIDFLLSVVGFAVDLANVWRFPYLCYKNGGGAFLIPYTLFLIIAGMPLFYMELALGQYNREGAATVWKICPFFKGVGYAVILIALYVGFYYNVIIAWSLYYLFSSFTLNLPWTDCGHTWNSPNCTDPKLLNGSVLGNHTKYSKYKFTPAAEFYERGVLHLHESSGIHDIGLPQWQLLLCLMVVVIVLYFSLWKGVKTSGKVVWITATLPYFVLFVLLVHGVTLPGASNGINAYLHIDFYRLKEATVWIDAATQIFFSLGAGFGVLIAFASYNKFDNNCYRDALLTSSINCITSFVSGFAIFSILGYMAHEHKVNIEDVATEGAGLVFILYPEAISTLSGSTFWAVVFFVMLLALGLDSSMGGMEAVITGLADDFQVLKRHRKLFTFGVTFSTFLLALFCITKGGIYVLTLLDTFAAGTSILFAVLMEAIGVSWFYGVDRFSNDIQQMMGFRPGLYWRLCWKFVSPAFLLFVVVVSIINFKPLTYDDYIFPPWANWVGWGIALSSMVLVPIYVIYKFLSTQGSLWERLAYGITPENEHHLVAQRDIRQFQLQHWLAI

Histamine, H2 = Histamine, H2 (Homo sapiens, UniProt P25021); experiment: Receptor selectivity binding comparison: Histamine H2; conditions: 1.0E−6
Chain of Histamine, H2 (P25021 whole entry): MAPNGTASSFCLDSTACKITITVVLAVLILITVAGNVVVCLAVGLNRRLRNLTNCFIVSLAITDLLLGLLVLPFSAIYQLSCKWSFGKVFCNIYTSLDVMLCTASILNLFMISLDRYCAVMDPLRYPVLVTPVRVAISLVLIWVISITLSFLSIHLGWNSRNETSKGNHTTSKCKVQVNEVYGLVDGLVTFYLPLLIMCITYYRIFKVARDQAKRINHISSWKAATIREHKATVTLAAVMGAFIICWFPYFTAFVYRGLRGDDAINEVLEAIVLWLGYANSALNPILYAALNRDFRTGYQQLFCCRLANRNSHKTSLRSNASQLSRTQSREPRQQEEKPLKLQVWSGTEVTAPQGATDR

[5] = target: cloned hERG channels expressed in HEK293 cells (Homo sapiens, UniProt Q12809); experiment: hERG block comparative study, whole cell recording; conditions: table title 1.0E−6
Chain of cloned hERG channels expressed in HEK293 cells (Q12809 whole entry): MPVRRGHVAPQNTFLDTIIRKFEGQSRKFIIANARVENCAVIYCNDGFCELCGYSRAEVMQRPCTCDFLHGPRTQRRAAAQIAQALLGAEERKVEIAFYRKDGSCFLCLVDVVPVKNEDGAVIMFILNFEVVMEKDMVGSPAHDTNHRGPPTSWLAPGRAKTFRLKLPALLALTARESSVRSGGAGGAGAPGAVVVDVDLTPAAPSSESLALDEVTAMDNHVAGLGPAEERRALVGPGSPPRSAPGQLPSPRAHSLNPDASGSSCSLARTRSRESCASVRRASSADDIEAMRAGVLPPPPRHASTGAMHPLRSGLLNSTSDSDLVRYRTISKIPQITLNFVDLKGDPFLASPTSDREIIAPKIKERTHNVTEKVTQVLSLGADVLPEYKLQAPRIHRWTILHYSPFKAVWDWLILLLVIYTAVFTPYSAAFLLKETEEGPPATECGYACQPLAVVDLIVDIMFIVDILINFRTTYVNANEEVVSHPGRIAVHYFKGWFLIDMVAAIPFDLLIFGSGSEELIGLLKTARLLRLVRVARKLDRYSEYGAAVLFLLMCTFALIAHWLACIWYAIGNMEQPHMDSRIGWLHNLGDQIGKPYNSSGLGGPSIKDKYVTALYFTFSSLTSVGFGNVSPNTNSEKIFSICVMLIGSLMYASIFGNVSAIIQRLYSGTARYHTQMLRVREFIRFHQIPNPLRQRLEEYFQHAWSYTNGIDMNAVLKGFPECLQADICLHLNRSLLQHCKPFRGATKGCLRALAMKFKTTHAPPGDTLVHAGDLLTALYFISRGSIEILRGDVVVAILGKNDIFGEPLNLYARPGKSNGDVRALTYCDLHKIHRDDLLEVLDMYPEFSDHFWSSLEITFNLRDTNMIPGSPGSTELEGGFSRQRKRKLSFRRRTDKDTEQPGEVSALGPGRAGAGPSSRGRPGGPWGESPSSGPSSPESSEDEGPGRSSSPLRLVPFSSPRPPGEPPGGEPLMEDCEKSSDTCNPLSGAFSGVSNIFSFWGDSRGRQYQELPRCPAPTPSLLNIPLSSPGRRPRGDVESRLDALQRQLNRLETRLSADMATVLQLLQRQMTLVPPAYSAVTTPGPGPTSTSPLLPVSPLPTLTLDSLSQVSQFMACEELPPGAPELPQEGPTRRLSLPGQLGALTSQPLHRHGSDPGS

male Wistar rats = experiment: Sleep-wakefulness, locomotor activity and body temperature monitoring (SCORE-2000); type: in vivo, rat; conditions: 30 mg/kg PO at CT-18
[6] = target: T1, human recombinant M1 muscarinic receptor expressed in CHO cells; experiment: M1 binding assay (human recombinant), [3H]-scopolamine N-methyl chloride; conditions: 1.0E−6
[7] = target: T3, human recombinant M2 muscarinic receptor expressed in CHO cells (Homo sapiens, UniProt P08172); experiment: M2 binding assay (human recombinant); conditions: 1.0E−6
T3 construct: expressed in transfected cells; host or cells: CHO cells
T3 sequence (P08172 1-466): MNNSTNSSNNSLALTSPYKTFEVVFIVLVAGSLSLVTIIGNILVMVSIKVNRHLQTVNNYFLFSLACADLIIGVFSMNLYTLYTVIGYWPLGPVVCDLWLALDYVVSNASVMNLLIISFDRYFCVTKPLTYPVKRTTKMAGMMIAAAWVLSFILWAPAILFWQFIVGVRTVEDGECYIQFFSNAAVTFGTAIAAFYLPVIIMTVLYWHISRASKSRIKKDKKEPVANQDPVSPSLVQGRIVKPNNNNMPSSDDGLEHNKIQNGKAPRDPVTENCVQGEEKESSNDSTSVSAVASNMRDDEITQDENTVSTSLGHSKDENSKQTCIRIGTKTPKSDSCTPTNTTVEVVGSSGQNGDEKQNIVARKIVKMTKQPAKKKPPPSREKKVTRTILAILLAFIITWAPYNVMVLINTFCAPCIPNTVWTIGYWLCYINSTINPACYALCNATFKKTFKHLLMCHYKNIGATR

## C[N+]1(C)CCC(OC(=O)C(c2ccccc2)c2ccccc2)CC1 [4-DAMP methiodide]
[1]
  Ki: 37.5 nM
[2]
  Ki: 0.27 nM

## CCN(CC)CC1CCCCN1CC(=O)N1c2ccccc2C(=O)Nc2cccnc21 (stereo not shown) [AF-DX 116]
[3]
  Ki: 63 nM

## O=C(O)CCN1CCC(=C2c3ccccc3COc3ccccc32)CC1 [Compound 8a]
[4]
  Percent Inhibition, Norepinephrine Transporter: −3.9%
Histamine, H2
  Percent Inhibition, Histamine, H2: 33.4%
[5]
  Percent Inhibition, HERG: 4%
Male Wistar rats
  Average Bout-Length: 12.2 min
  Maximum Bout Length: 28.9 min
  NREM Accum.: 65.8 min
  NREM Peak (%/hr): 75.5 %/hr
  Onset: 65 min
[6]
  Percent Inhibition, Muscarinic, M1 (Human Recombinant): 3.3%

## CN(C)CCC=C1c2ccccc2COc2ccccc21 [Doxepin, doxepin HCl, reference compound]
Histamine, H2
  Percent Inhibition, Histamine, H2: 74.7%
[5]
  Percent Inhibition, HERG: 23%**
[7]
  Percent Inhibition, Muscarinic, M2 (Human Recombinant): 74.0%

## O[Si](CCCN1CCCCC1)(c1ccccc1)C1CCCCC1 (stereo not shown) [HHSID]
[1]
  Ki: 281 nM
